{"source": "patent US9447048B2", "about": "“Processes for the preparation of pesticidal compounds” (Dow AgroSciences LLC, priority 2013, dated 2016)", "key": {"[1]": {"tested_on": "Green Peach Aphid (Myzus persicae) (MYZUPE)", "assay": "Bioassay on Green Peach Aphid (GPA), foliar spray on cabbage seedlings", "assay_type": "in vivo", "settings": "200 ppm spray on cabbage leaves, graded after three days, live aphids, Abbott's correction", "description": "Several molecules disclosed herein were tested against GPA using procedures described below.\nCabbage seedling grown in 3-in pots, with 2-3 small (3-5 cm) true leaves, were used as test substrate. The seedlings were infested with […] (wingless adult and nymph stages) one day prior to chemical application. Four pots with individual seedlings were used for each treatment. Test compounds (2 mg) were dissolved in 2 mL of acetone/MeOH (1:1) solvent, forming stock solutions of 1000 ppm test compound. The stock solutions were diluted 5× with 0.025% Tween 20 in water to obtain the solution at 200 ppm test compound. A hand-held aspirator-type sprayer was used for spraying a solution to both sides of the cabbage leaves until runoff. Reference plants (solvent check) were sprayed with the diluent only containing 20% by volume acetone/MeOH (1:1) solvent. Treated plants were held in a holding room for three days at approximately 25° C. and ambient relative humidity (RH) prior to grading. Evaluation was conducted by counting the number of live aphids per plant under a microscope. Percent Control was measured by using Abbott's correction formula (W. S. Abbott, “A Method of Computing the Effectiveness of an Insecticide” J. Econ. Entomol 18 (1925), pp. 265-267) as follows. Corrected % Control=100*(X−Y)/X • where • X=No. of live aphids on solvent check plants and • Y=No. of live aphids on treated plants\nThe results are indicated in the table entitled “Table 1: GPA (MYZUPE) and sweetpotato whitefly-crawler (BEMITA) Rating Table”."}, "[2]": {"tested_on": "Sweetpotato Whitefly Crawler (Bemisia tabaci) (BEMITA)", "assay": "Bioassay on Sweetpotato Whitefly Crawler, foliar spray on cotton plants", "assay_type": "in vivo", "settings": "200 ppm spray on cotton leaf, graded after 8-9 days, live nymphs, Abbott's correction", "description": "Cotton plants grown in 3-inch pots, with 1 small (3-5 cm) true leaf, were used at test substrate. The plants were placed in a room with whitely adults. Adults were allowed to deposit eggs for 2-3 days. After a 2-3 day egg-laying period, plants were taken from the adult whitefly room. Adults were blown off leaves using a hand-held Devilbliss sprayer (23 psi). Plants with egg infestation (100-300 eggs per plant) were placed in a holding room for 5-6 days at 82° F. and 50% RH for egg hatch and crawler stage to develop. Four cotton plants were used for each treatment. Compounds (2 mg) were dissolved in 1 mL of acetone solvent, forming stock solutions of 2000 ppm. The stock solutions were diluted 10× with 0.025% Tween 20 in water to obtain a test solution at 200 ppm. A hand-held Devilbliss sprayer was used for spraying a solution to both sides of cotton leaf until runoff. Reference plants (solvent check) were sprayed with the diluent only. Treated plants were held in a holding room for 8-9 days at approximately 82° F. and 50% RH prior to grading. Evaluation was conducted by counting the number of live nymphs per plant under a microscope."}}}
{"smiles": "Cl.Nc1c[nH]nc1Cl", "note": "[Compound 1a, 3-chloro-1H-pyrazol-4-amine Hydrochloride]", "values": [{"measurement": "MYZUPE rating (% Control of Mortality)", "setting": "[1]", "result": "B (More than 0-Less than 80)"}, {"measurement": "BEMITA rating (% Control of Mortality)", "setting": "[2]", "result": "B (More than 0-Less than 80)"}]}
{"smiles": "O=C(CCSCCC(F)(F)F)Nc1c[nH]nc1Cl", "note": "[Compound 2.3, N-(3-chloro-1H-pyraxol-4-yl)-3-((3,3,3,trifluoropropyl)thio)propanamide]", "values": [{"measurement": "MYZUPE rating (% Control of Mortality)", "setting": "[1]", "result": "B (More than 0-Less than 80)"}, {"measurement": "BEMITA rating (% Control of Mortality)", "setting": "[2]", "result": "B (More than 0-Less than 80)"}]}
{"smiles": "O=C(CCSCCC(F)(F)F)Nc1cn(-c2cccnc2)nc1Cl", "note": "[Compound 5.3, N-(3-chloro-1-(pyridin-3-yl)-1H-pyrazol-4-yl)-3-((3,3,3-trifluoropropyl)thio)propanamide]", "values": [{"measurement": "MYZUPE rating (% Control of Mortality)", "setting": "[1]", "result": "A (80-100)"}, {"measurement": "BEMITA rating (% Control of Mortality)", "setting": "[2]", "result": "B (More than 0-Less than 80)"}]}
{"smiles": "CCN(C(=O)CCSCCC(F)(F)F)c1cn(-c2cccnc2)nc1Cl", "note": "[Compound 6.3, N-(3-chloro-1-(pyridin-3-yl)-1H-pyrazol-4-yl)-N-ethyl-3-((3,3,3-trifluoropropyl)thio)propanamide]", "values": [{"measurement": "MYZUPE rating (% Control of Mortality)", "setting": "[1]", "result": "A (80-100)"}, {"measurement": "BEMITA rating (% Control of Mortality)", "setting": "[2]", "result": "A (80-100)"}]}
{"smiles": "CCN(C(=O)CC[S+]([O-])CCC(F)(F)F)c1cn(-c2cccnc2)nc1Cl", "note": "(stereo not shown) [Compound 7.3, N-(3-chloro-1-(pyridin-3-yl)-1H-pyrazol-4-yl)-N-ethyl-3-((3,3,3-trifluoropropyl)sulfoxo)propanamide]", "values": [{"measurement": "MYZUPE rating (% Control of Mortality)", "setting": "[1]", "result": "A (80-100)"}, {"measurement": "BEMITA rating (% Control of Mortality)", "setting": "[2]", "result": "A (80-100)"}]}
